{
  "source": "patent US8980793B2",
  "about": "“Phytosanitary formulations” (Centre National de la Recherche Scientifique (CNRS), priority 2007, dated 2015)",
  "key": {"[1]": {"assay": "Photodegradation of sulcotrione on carnauba wax films irradiated in a Suntest reactor, HPLC analysis", "type": "physicochemical", "details": "wax film, 6 hours irradiation", "from_the_text": "The methodology for conducting the tests on thin films of cuticular wax comprises the following steps: • Preparation of the wax film: the wax which is used is the commercial carnauba wax. • Adding the pesticide. On the one hand, the active ingredient, sulcotrione, and on the other hand, the commercial formulation, Mikado®(alone or with the adding of at least one extract of at least one tinctorial plant, is deposited under the form of an aqueous solution on the surface of the leaves. The amount of active ingredient deposited by surface unit is equivalent to the amount used in agriculture. The studies are conducted after evaporation of the water. • Recovering of the pesticide. The films are rinsed with water and analysed by HPLC. It has been checked that the step of recovering is quantitative. • Tests in darkness. The concentration of the active ingredients on the surface of the leaves in darkness is controlled in order to measure the penetration rate of the active ingredient in the films and its volatilisation. […]\nThe photoprotective effects of the extracts according to the invention have been evaluated as follows The surface concentration of the active ingredient (sulcotrione) on the wax films is of 0.76 10^−5 g/cm^2, the active ingredient being used either pure or under the form of a commercial formulation. […]"}, "[2]": {"assay": "Mikado spread on maize plants planted in a field, leaf surface checked by HPLC", "details": "spread as Mikado", "from_the_text": "For this aim, the commercial formulation, Mikado®, has been spread on maize plants planted in a field.\nThe amount of sulcotrione and the formation of a by-product of the phototransformation on the surface of the leaves have been checked by HPLC."}, "[3]": {"assay": "Tests in darkness on wax films (penetration and volatilisation)", "type": "physicochemical", "details": "wax film", "from_the_text": "The methodology for conducting the tests on thin films of cuticular wax comprises the following steps: • Preparation of the wax film: the wax which is used is the commercial carnauba wax. • Adding the pesticide. On the one hand, the active ingredient, sulcotrione, and on the other hand, the commercial formulation, Mikado®(alone or with the adding of at least one extract of at least one tinctorial plant, is deposited under the form of an aqueous solution on the surface of the leaves. The amount of active ingredient deposited by surface unit is equivalent to the amount used in agriculture. The studies are conducted after evaporation of the water. • Recovering of the pesticide. The films are rinsed with water and analysed by HPLC. It has been checked that the step of recovering is quantitative. • Tests in darkness. The concentration of the active ingredients on the surface of the leaves in darkness is controlled in order to measure the penetration rate of the active ingredient in the films and its volatilisation. […] Irradiation tests are conducted in a Suntest reactor simulating solar rays in temperate countries."}, "[4]": {"details": "cited from earlier work"}},
  "data": [
    {"compound": "CS(=O)(=O)c1ccc(C(=O)C2C(=O)CCCC2=O)c(Cl)c1", "note": "[sulcotrione]", "values": [
      {"measurement": "Weight percentage of remaining active ingredient after 6 hours of UV exposure", "setting": "[1]", "value": "5-10%"},
      {"measurement": "detection of sulcotrione on the surface of the leaves", "setting": "[2]; maize plants in a field, after 24 hours", "value": "no longer detected"},
      {"measurement": "sulcotrione transformed", "setting": "[2]; surface of maize leaves in a field, after one hour", "value": 25, "unit": "%"},
      {"measurement": "penetration of the active ingredient into the films", "setting": "[3]", "value": "penetrates slowly into the films"},
      {"measurement": "volatilisation of the active ingredient", "setting": "[3]", "value": "very little active ingredients volatilize"},
      {"measurement": "half-life in water", "setting": "[4]", "value": "about 80 days"}
    ]}
  ]
}
